In ChEMBL document CHEMBL1201862, “PubChem BioAssay data set” (2004):
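Following 48 hours of exposure in 96-well plates, responses at five concentrations were used to interpolate endpoints linearly. GI50 = concentration required for 50% inhibition of growth.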 The source made the active and inactive calls. No stated cut-off is given here; in the data, active = GI50 up to about 1.1 µM and inactive = higher.

Legend:
Test in all cases: NCI anticancer screen, dose series, 48 h
NCI-H23 = tested on: NCI-H23
SF-295 = tested on: SF-295
TK-10 = tested on: TK-10
SK-OV-3 = tested on: SK-OV-3
UACC-62 = tested on: UACC-62
OVCAR-3 = tested on: OVCAR-3
CAKI-1 = tested on: CAKI-1
UACC-257 = tested on: UACC-257
EKVX = tested on: EKVX
HCT-15 = tested on: HCT-15
NCI-H226 = tested on: NCI-H226
SN12C = tested on: SN12C
RXF 393 = tested on: RXF 393
HOP-62 = tested on: HOP-62
SK-MEL-28 = tested on: SK-MEL-28
MDA-MB-231 = tested on: MDA-MB-231
MDA-MB-435 = tested on: MDA-MB-435
PC-3 = tested on: PC-3
NCI/ADR-RES = tested on: NCI/ADR-RES
MDA-N = tested on: MDA-N

| SMILES | GI50 (NCI-H23) | GI50 (SF-295) | GI50 (TK-10) | GI50 (SK-OV-3) | GI50 (UACC-62) | GI50 (OVCAR-3) | GI50 (CAKI-1) | GI50 (UACC-257) | GI50 (EKVX) | GI50 (HCT-15) [µM] | GI50 (NCI-H226) | GI50 (SN12C) | GI50 (RXF 393) | GI50 (HOP-62) | GI50 (SK-MEL-28) | GI50 (MDA-MB-231) | GI50 (MDA-MB-435) | GI50 (PC-3) | GI50 (NCI/ADR-RES) | GI50 (MDA-N) |
| --- | --- | --- | --- | --- | --- | --- | --- | --- | --- | --- | --- | --- | --- | --- | --- | --- | --- | --- | --- | --- |
| C=C(C)C1CC=C(C(=O)O)CC1 (configuration not stated) | 968 µM (inactive) | 1090 µM (inactive) | 1580 µM (inactive) | 2070 µM (inactive) | 741 µM (inactive) | 877 µM (inactive) | 1300 µM (inactive) | 1190 µM (inactive) | 2360 µM (inactive) | 871 | 1040 µM (inactive) | 1570 µM (inactive) | 942 µM (inactive) | 995 µM (inactive) | 1010 µM (inactive) |  |  |  |  |  |
| COc1ccc2c(c1OC)OC[C@@H](C1=CC(=O)C=C(O)C1=O)C2 | 16.5 µM (inactive) | 16.1 µM (inactive) | 14.2 µM (inactive) | 16.6 µM (inactive) | 12.1 µM (inactive) | 7.62 µM (inactive) |  | 13 µM (inactive) | 12.5 µM (inactive) | 14.7 | 19.6 µM (inactive) | 16.2 µM (inactive) | 6.4 µM (inactive) | 27 µM (inactive) | 16.9 µM (inactive) | 4.46 µM (inactive) | 8.61 µM (inactive) | 13.1 µM (inactive) | 24.5 µM (inactive) |  |
| CC1=NN(c2cccc(Cl)c2)C(=N/c2nc3ccccc3s2)/C1=C\C=C\c1ccccc1 | 32.1 µM (inactive) | 33.5 µM (inactive) | 34.9 µM (inactive) | 34.6 µM (inactive) |  | 27 µM (inactive) | 28.4 µM (inactive) | 31.5 µM (inactive) | 47.6 µM (inactive) | 32.2 | 79.8 µM (inactive) |  | 51.4 µM (inactive) | 30.8 µM (inactive) | 29.3 µM (inactive) |  | 33.8 µM (inactive) |  | 59.2 µM (inactive) | 37.2 µM (inactive) |
| Cc1ccc(N/C(Sc2ccccc2)=C(/C(Cl)=C(Cl)Cl)[N+](=O)[O-])c(C)c1 | 22.9 µM (inactive) | 25.1 µM (inactive) | 45.6 µM (inactive) | 37.8 µM (inactive) | 30.6 µM (inactive) |  | 17 µM (inactive) | 18.2 µM (inactive) | 22.1 µM (inactive) | 16.8 | 24.6 µM (inactive) | 18.4 µM (inactive) |  | 23.8 µM (inactive) | 18.5 µM (inactive) | 18.9 µM (inactive) | 14.4 µM (inactive) | 17.7 µM (inactive) | 23.7 µM (inactive) |  |
| Cn1c(=O)n2n(c1=O)[C@@H](c1ccccc1)[C@H]2c1ccccc1 | 65.6 µM (inactive) | > 100 µM (inactive) | > 100 µM (inactive) | > 100 µM (inactive) | > 100 µM (inactive) | > 100 µM (inactive) | > 100 µM (inactive) | > 100 µM (inactive) | > 100 µM (inactive) | > 100 | > 100 µM (inactive) | > 100 µM (inactive) | > 100 µM (inactive) | > 100 µM (inactive) | > 100 µM (inactive) | > 100 µM (inactive) |  | > 100 µM (inactive) | > 100 µM (inactive) |  |
| CCOP(=O)(OCC)/C(C#N)=C/c1cnc[nH]1 | > 100 µM (inactive) | > 100 µM (inactive) | > 100 µM (inactive) | > 100 µM (inactive) | > 100 µM (inactive) | > 100 µM (inactive) | > 100 µM (inactive) | > 100 µM (inactive) | > 100 µM (inactive) | > 100 | > 100 µM (inactive) | > 100 µM (inactive) | > 100 µM (inactive) | > 100 µM (inactive) | > 100 µM (inactive) | > 100 µM (inactive) | > 100 µM (inactive) | > 100 µM (inactive) | > 100 µM (inactive) |  |
| O=C(C=P(c1ccccc1)(c1ccccc1)c1ccccc1)CC(=S)CC(=O)C=P(c1ccccc1)(c1ccccc1)c1ccccc1 | 3.14 µM (inactive) | 3.16 µM (inactive) | 7.96 µM (inactive) | 3.95 µM (inactive) | 4.31 µM (inactive) | 2.61 µM (inactive) | 16.2 µM (inactive) | 3.15 µM (inactive) | 21.6 µM (inactive) | 15.3 | 5.85 µM (inactive) | 3.39 µM (inactive) | 5.61 µM (inactive) | 8.04 µM (inactive) | 8.22 µM (inactive) |  |  |  |  |  |
| COc1cccc(C2c3cc4c(cc3OC(N3CCCC3)C2c2ccccc2)OCO4)c1O (configuration not stated) | 14 µM (inactive) | 3.74 µM (inactive) | 13.7 µM (inactive) |  | 14.1 µM (inactive) | 3.34 µM (inactive) | 2.88 µM (inactive) | 11.4 µM (inactive) | 16.6 µM (inactive) | 6 |  | 12.7 µM (inactive) |  | 21 µM (inactive) | 13 µM (inactive) |  | 6.59 µM (inactive) | 8.28 µM (inactive) | 9.91 µM (inactive) | 8.18 µM (inactive) |
| CC(=O)OCC1OC(N2C(=O)C(=O)c3ccccc32)C(OC(C)=O)C(OC(C)=O)C1OC(C)=O (configuration not stated) | > 100 µM (inactive) | > 100 µM (inactive) | > 100 µM (inactive) | > 100 µM (inactive) | > 100 µM (inactive) | > 100 µM (inactive) | > 100 µM (inactive) | > 100 µM (inactive) | > 100 µM (inactive) | > 100 | > 100 µM (inactive) | > 100 µM (inactive) | > 100 µM (inactive) | > 100 µM (inactive) | > 100 µM (inactive) |  |  |  |  |  |
| CC(C)OC(=O)C1Cc2c([nH]c3ccccc23)C(c2ccccc2)N1 (configuration not stated) | 67.1 µM (inactive) | > 100 µM (inactive) | > 100 µM (inactive) | > 100 µM (inactive) | > 100 µM (inactive) | > 100 µM (inactive) | > 100 µM (inactive) | 68.5 µM (inactive) | 89.3 µM (inactive) | 75.3 | > 100 µM (inactive) | > 100 µM (inactive) | 23.8 µM (inactive) | 23.4 µM (inactive) | 42.5 µM (inactive) |  |  |  |  |  |
| N#CC1(C#N)NC(c2cccs2)C(C#N)(C#N)NC1c1cccs1 (configuration not stated) | 55.1 µM (inactive) | 52.5 µM (inactive) | > 100 µM (inactive) | 33.7 µM (inactive) | 20.6 µM (inactive) | 25.2 µM (inactive) | 58.6 µM (inactive) | > 100 µM (inactive) | 55.8 µM (inactive) | 30.7 | 53.1 µM (inactive) | 43.2 µM (inactive) | 31.7 µM (inactive) | > 100 µM (inactive) | 29.6 µM (inactive) | 80.9 µM (inactive) | 46.1 µM (inactive) | 27.4 µM (inactive) | 77.3 µM (inactive) |  |
| O=C1c2ccccc2-n2c1nc1ccc([N+](=O)[O-])cc1c2=O | 48.2 µM (inactive) | 24.1 µM (inactive) | > 100 µM (inactive) | > 100 µM (inactive) | 44.2 µM (inactive) | 21.1 µM (inactive) | 20.2 µM (inactive) | 89.7 µM (inactive) | 93.1 µM (inactive) | 29.3 | 25.6 µM (inactive) | 49.2 µM (inactive) | 60.4 µM (inactive) | 30.6 µM (inactive) | 55.1 µM (inactive) | 45.7 µM (inactive) | > 10 µM (inactive) | > 100 µM (inactive) | > 100 µM (inactive) |  |
